Active and inactive are the calls of the source.
Legend:
[1] = biological target: Peroxisome proliferator-activated receptor gamma/Nuclear receptor coactivator 2 (Homo sapiens, UniProt P37231); test: TR-FRET dose response biochemical High Throughput Screening assay for agonists of the steroid receptor coactivator 2 (SRC-2) recruitment by the peroxisome proliferator-activated receptor gamma (PPAR gamma): non-selective agonists. [Related pubchem assays: 1297, 1032 ]; format: functional
[2] = biological target: Peroxisome proliferator-activated receptor gamma/Nuclear receptor coactivator 3 (Homo sapiens, UniProt P37231); test: TR-FRET dose response biochemical High Throughput Screening assay for agonists of the steroid receptor coactivator 3 (SRC-3) recruitment by the peroxisome proliferator-activated receptor gamma (PPAR gamma): non-selective agonists. [Related pubchem assays: 1301 (Confirmation screen.), 1048 (Primary screen.)]; format: functional
Sequence of Peroxisome proliferator-activated receptor gamma/Nuclear receptor coactivator 3 (P37231 whole entry): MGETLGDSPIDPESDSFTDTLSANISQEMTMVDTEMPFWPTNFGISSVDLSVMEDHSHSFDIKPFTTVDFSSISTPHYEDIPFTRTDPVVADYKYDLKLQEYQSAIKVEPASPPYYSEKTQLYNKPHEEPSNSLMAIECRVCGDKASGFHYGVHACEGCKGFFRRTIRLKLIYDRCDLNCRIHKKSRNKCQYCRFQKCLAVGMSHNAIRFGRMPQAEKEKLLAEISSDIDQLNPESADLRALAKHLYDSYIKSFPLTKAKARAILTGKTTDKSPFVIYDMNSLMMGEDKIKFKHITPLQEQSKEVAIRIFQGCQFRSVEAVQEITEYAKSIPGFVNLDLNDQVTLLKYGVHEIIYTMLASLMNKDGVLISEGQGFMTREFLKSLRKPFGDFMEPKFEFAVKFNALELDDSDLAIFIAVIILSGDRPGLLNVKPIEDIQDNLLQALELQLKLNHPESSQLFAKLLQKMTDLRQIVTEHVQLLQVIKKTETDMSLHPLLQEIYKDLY
Sequence of Peroxisome proliferator-activated receptor gamma/Nuclear receptor coactivator 3 (Q9Y6Q9 whole entry, further chain): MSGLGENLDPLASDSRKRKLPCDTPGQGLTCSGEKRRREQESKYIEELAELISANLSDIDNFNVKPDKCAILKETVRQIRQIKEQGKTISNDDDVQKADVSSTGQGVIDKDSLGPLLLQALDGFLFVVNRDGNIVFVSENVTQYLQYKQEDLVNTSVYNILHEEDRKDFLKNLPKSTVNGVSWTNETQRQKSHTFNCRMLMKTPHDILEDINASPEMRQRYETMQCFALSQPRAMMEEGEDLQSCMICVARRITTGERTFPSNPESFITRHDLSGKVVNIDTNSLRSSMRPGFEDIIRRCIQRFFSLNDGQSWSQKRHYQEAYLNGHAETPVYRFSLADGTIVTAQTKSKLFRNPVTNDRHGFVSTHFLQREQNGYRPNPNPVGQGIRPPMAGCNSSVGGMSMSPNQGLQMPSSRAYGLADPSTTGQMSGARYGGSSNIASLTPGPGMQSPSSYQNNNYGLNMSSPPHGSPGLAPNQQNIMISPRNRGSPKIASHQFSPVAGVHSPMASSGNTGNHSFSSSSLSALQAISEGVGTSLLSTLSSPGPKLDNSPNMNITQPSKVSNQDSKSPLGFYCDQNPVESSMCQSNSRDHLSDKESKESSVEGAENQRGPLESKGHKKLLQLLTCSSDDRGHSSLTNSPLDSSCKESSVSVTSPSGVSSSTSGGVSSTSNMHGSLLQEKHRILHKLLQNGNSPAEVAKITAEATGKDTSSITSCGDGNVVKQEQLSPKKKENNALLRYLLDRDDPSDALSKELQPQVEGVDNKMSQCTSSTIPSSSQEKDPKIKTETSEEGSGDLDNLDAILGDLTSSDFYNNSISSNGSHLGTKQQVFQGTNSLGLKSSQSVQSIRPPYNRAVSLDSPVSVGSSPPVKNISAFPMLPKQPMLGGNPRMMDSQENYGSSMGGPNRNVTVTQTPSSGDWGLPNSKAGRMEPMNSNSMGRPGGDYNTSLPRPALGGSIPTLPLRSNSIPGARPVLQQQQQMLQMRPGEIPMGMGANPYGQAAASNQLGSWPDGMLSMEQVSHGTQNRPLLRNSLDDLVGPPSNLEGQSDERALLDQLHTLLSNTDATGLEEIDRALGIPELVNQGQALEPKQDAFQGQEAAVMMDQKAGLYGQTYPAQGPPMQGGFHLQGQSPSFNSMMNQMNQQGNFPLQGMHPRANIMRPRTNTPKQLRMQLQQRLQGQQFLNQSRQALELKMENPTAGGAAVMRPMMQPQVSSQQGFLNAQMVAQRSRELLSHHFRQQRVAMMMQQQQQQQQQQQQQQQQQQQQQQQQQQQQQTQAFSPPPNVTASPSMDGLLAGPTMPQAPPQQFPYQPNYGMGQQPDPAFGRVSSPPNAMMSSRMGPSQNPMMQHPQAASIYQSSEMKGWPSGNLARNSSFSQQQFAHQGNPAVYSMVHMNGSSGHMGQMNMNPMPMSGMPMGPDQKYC

[3] = biological target: Peroxisome proliferator-activated receptor gamma/Nuclear receptor coactivator 1 (Homo sapiens, UniProt P37231); test: TR-FRET dose response biochemical High Throughput Screening assay for agonists of the steroid receptor coactivator 1 (SRC-1) recruitment by the peroxisome proliferator-activated receptor gamma (PPAR gamma): non-selective agonists. [Related pubchem assays (depositor defined):AID1300, AID1808, AID504735, AID631]; format: protein assay
Sequence of Peroxisome proliferator-activated receptor gamma/Nuclear receptor coactivator 1 (P37231 whole entry): as the sequence (P37231 whole entry) above
Sequence of Peroxisome proliferator-activated receptor gamma/Nuclear receptor coactivator 1 (Q15788 whole entry, further chain): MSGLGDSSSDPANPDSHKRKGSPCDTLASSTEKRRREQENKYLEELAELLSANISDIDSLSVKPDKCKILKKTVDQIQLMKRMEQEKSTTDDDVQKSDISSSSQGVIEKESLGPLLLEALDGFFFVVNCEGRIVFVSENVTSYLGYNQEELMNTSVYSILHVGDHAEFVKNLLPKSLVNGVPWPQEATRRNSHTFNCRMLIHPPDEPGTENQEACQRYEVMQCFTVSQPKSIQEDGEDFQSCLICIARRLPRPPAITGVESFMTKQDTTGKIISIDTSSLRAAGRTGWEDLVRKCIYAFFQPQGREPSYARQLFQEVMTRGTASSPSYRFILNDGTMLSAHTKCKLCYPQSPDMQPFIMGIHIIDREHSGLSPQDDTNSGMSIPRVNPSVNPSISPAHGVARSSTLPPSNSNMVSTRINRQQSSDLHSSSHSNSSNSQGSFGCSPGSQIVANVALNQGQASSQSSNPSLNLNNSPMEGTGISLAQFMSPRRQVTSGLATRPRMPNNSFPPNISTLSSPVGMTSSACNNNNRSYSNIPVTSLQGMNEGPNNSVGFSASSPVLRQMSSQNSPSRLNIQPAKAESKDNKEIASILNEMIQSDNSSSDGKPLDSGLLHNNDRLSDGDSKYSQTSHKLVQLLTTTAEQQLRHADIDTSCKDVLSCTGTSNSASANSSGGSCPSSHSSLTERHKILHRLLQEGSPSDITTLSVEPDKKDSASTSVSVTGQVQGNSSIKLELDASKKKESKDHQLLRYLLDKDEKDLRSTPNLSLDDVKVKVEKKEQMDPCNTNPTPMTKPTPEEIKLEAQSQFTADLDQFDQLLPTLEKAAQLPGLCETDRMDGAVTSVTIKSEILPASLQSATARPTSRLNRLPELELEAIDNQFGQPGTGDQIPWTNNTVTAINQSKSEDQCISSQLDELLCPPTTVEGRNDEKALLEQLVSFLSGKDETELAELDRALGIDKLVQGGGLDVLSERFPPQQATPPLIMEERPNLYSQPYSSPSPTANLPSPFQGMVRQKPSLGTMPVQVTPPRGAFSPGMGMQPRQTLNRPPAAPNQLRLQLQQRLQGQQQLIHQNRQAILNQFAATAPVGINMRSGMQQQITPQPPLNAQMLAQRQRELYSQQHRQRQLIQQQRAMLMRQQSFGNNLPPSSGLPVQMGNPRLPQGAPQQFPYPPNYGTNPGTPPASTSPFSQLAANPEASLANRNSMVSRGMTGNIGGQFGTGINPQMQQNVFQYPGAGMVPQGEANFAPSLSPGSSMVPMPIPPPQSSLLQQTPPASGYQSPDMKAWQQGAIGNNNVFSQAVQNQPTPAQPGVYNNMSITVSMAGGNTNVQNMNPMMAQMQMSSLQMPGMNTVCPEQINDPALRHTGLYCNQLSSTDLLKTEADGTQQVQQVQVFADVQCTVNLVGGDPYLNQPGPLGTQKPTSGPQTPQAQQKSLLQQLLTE

Mu-type opioid receptor [4] = biological target: T1, Mu-type opioid receptor (Homo sapiens, UniProt P35372); test: mu opioid receptor activators, image-based, SAR follow-up (AID 2352); format: functional
T1 sequence (P35372 whole entry): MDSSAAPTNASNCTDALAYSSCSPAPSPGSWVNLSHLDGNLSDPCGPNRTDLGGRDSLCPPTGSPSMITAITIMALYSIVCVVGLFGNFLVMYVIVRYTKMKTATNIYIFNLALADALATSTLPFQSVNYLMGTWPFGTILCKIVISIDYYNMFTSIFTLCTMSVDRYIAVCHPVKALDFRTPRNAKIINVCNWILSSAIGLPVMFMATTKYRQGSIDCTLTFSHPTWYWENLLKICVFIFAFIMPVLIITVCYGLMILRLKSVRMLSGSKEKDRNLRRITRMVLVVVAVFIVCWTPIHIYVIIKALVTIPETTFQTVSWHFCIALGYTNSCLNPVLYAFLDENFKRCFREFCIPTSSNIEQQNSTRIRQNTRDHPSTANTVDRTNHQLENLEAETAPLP

[5] = biological target: T2, Delta-type opioid receptor (Homo sapiens, UniProt P41143); test: DOR agonists, SAR follow-up, image-based (AID 2370); format: functional
T2 sequence (P41143 whole entry): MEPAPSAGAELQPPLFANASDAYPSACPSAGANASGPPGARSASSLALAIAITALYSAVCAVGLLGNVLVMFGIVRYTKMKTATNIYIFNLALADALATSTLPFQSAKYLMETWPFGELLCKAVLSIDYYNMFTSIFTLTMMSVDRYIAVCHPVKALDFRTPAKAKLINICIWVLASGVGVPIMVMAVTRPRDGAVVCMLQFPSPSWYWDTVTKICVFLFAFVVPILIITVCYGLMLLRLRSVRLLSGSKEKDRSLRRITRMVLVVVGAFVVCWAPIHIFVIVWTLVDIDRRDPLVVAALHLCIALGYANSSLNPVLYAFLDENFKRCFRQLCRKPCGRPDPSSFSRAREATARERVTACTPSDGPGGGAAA

[6] = biological target: T3, Kappa-type opioid receptor (Homo sapiens, UniProt P41145); test: kappa opioid receptor blockers, image-based, SAR follow-up (AID 2348); format: functional
T3 sequence (P41145 whole entry): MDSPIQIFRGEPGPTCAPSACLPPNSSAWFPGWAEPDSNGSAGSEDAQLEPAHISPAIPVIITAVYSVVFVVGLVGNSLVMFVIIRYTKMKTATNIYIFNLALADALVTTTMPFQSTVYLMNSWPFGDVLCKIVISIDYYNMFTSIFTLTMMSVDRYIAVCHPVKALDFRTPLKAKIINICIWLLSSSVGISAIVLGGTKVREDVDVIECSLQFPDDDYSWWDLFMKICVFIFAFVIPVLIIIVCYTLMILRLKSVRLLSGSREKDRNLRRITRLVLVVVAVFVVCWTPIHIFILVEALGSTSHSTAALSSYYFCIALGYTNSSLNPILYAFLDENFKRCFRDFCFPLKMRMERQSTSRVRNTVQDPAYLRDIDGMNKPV

[7] = biological target: T3, Kappa-type opioid receptor; test: kappa opioid receptor activation potency – imaging, image-based, SAR follow-up (AID 2359); format: functional
[8] = biological target: T2, Delta-type opioid receptor; test: delta opioid receptor blockers – image-based, SAR follow-up (AID 2357); format: functional
Mu-type opioid receptor [9] = biological target: T1, Mu-type opioid receptor; test: mu opioid receptor blockers – image-based, SAR follow-up (AID 2420); format: functional;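 further: compounds added before stimulation of receptor with agonist DAMGO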
[10] = biological target: T3, Kappa-type opioid receptor; test: SAR analysis of small molecule agonists of the kappa opioid receptor via a luminescent beta-arrestin assay. [Related pubchem assays (depositor defined):AID1777, AID1786, AID1966, AID2133, AID2136, AID2348, AID2352, AID2357, AID2359, AID2370, AID2420, AID2478, AID2491, AID2492, AID2493, AID2497, AID2498, AID2500, AID449737, AID488822, AID488842]; format: functional
[11] = biological target: Alkaline phosphatase, placental type (Homo sapiens, UniProt P05187); test: human placental alkaline phosphatase inhibition – biochemical, luminescence, confirmation (AID 1512); format: functional
[12] = biological target: Lysine-specific demethylase 4C (Homo sapiens, UniProt Q9H3R0); test: inhibition of JMJD2C H3K9me3 demethylation – biochemical, DELFIA europium, cherry-picked samples, dose response (AID 488835); format: functional
[13] = viability of uninfected HEp-2 cells – cell-based, HTS, cytotoxicity control for RSV inhibitor project, dose response (AID 2410); format: functional; settings: human respiratory syncytial virus
Troponin, cardiac muscle = Troponin, cardiac muscle (Homo sapiens, UniProt P19429+P45379+P63316); test: Fluorescence-based biochemical high throughput dose response assay for activators of the calcium sensitivity of cardiac Regulated Thin Filaments (RTF). [Related pubchem assays (depositor defined):AID493008, AID493018, AID504382, AID504383]; format: protein-complex assay
[14] = biological target: T4, Endoribonuclease toxin MazF (Escherichia coli K-12, UniProt P0AE70); test: activation of MazEF endoribonuclease cleavage – biochemical, fluorescence, single-stranded RNA substrate, uHTS hits, dose response (AID 588481); format: functional
T4 sequence (P0AE70 whole entry): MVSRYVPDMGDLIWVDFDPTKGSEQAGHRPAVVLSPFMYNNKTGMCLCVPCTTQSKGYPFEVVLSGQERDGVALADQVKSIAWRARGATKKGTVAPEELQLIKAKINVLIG

[15] = biological target: T4, Endoribonuclease toxin MazF; test: substrate-only fluorescence increase artefacts – biochemical, single-stranded RNase substrate, counter-screen for MazEF activator project, dose response (AID 588502); format: functional
Vero = test: cells; format: functional; settings: Chlorocebus sabaeus
Streptococcus = test: GAS UMAA2166 growth inhibition – luminescence, BacTiterGlo, counter-screen for streptokinase expression inhibitor project, dose response (AID 1915); format: functional, organism-based;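 further: potency for reduction of bacterial viability or growth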
[16] = Vero E6 cell cytotoxicity, dose response, cytotoxicity control for non-replicating M. tuberculosis project, secondary assay (AID 492998); format: functional, VeroE6; settings: Vero C1008
cells = format: functional
[17] = biological target: T5, Corticotropin-releasing factor receptor 2/Corticotropin-releasing factor-binding protein (Homo sapiens, UniProt P24387+Q13324); test: activators of CRF receptor 2 with binding protein – uHTS hits, confirmation (AID 602473); format: functional; settings: read-out: EC50_Mean
T5 sequence (Q13324 whole entry): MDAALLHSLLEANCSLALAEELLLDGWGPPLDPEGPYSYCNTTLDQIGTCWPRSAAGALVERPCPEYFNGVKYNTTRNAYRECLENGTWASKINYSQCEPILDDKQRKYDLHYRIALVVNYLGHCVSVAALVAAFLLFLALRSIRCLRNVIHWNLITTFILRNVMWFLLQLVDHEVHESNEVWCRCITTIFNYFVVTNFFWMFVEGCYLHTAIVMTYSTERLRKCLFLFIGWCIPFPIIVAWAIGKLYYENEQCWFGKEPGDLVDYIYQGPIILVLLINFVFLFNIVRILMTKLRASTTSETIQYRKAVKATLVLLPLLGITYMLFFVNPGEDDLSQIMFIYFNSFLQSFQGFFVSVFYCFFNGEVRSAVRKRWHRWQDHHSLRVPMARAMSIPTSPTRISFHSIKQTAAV
T5 sequence (P24387 whole entry): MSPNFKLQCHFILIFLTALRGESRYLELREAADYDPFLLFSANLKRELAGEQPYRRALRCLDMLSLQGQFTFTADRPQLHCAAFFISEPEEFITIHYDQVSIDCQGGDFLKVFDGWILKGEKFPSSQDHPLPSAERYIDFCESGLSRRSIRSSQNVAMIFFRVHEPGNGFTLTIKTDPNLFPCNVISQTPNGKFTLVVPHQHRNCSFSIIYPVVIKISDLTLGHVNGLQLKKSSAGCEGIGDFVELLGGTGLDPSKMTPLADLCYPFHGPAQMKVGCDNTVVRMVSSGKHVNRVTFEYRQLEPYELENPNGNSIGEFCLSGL

[18] = HepG2 cell cytotoxicity, dose response, cytotoxicity control for non-replicating M. tuberculosis project (AID 489018); format: functional; settings: Mycobacterium tuberculosis
[19] = biological target: T6, Short transient receptor potential channel 4 (Mus musculus, UniProt Q9QUQ5); test: calcium entry via TRPC4 opening agents – cell-based, HEK293 TRPC4/mu-opioid, Fluo-4 calcium, dose response (AID 434937); format: functional
T6 sequence (Q9QUQ5 whole entry): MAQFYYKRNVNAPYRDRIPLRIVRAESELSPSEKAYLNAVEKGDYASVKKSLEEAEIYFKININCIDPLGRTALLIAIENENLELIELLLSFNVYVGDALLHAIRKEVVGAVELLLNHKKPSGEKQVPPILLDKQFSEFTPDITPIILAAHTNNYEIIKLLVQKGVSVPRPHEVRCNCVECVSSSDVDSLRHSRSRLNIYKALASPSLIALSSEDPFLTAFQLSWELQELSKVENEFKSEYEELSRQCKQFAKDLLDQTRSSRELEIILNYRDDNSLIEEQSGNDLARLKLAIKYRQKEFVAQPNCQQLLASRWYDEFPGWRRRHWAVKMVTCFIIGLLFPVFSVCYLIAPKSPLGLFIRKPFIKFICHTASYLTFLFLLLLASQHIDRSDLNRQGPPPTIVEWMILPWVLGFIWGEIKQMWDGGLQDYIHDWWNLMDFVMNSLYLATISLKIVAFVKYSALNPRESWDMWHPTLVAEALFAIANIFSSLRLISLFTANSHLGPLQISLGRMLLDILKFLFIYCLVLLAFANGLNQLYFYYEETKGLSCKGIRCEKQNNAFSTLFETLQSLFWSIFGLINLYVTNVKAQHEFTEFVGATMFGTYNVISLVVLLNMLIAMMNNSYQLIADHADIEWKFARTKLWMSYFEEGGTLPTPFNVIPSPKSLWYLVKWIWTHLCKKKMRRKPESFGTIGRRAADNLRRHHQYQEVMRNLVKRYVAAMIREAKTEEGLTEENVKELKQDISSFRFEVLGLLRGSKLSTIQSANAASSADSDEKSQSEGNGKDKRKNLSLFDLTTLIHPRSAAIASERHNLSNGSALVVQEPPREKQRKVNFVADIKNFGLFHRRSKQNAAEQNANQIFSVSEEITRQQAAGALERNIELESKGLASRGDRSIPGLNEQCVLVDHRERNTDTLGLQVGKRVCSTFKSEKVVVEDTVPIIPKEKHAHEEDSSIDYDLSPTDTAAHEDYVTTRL

Streptokinase A = biological target: T7, Streptokinase A (Streptococcus pyogenes serotype M1, UniProt P10520); test: viability-normalized secreted streptokinase activity reduction – plasminogen activation absorbance, OD405, dose response (AID 1914); format: functional, Streptococcus pyogenes M1 GAS;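 further: secreted streptokinase activity via plasminogen activation per viability signal from cell pellet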
T7 sequence (P10520 whole entry): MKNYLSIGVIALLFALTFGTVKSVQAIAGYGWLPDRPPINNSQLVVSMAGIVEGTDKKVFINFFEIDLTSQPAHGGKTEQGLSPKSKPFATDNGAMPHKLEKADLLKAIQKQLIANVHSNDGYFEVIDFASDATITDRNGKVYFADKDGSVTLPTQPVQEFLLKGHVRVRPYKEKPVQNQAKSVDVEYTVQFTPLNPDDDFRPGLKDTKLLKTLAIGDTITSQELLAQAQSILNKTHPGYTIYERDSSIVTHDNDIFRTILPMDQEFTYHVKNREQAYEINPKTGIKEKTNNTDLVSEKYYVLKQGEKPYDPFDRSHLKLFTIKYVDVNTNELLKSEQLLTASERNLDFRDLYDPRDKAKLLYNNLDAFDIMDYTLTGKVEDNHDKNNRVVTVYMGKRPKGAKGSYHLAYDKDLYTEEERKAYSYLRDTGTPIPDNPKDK

[20] = tested on: Streptococcus sp. 'group A'; test: Streptococcus pyogenes SK(-)GAS viability under kanamycin – luminescence, BacTiterGlo, confirmation, counter-screen for streptokinase expression inhibitor project, dose response (AID 1900); format: functional, organism-based
[21] = THP-1 cell cytotoxicity, dose response, cytotoxicity control for non-replicating M. tuberculosis project (AID 489025); format: functional
Mu-type opioid receptor [22] = biological target: T1, Mu-type opioid receptor; test: SAR Analysis of Antagonists of the MOR Receptor using an Image-Based Assay - Set 3. [Related pubchem assays (depositor defined):AID1777, AID1785, AID1786, AID1966, AID2133, AID2136, AID2284, AID2285, AID2420]; format: functional
[23] = biological target: T2, Delta-type opioid receptor; test: SAR Analysis of Antagonists of the DOR Receptor using an Image-Based Assay - Set 3. [Related pubchem assays (depositor defined):AID1777, AID1785]; format: functional
[24] = biological target: T3, Kappa-type opioid receptor; test: SAR analysis of Antagonists of the Kappa Opioid Receptor (KOR) using an Image-Based Assay - Set 3. [Related pubchem assays (depositor defined):AID1777, AID1785]; format: functional
[25] = biological target: T3, Kappa-type opioid receptor; test: SAR analysis of small molecule antagonists of the kappa opioid receptor via a luminescent beta-arrestin assay - Set 3. [Related pubchem assays (depositor defined):AID1777, AID1778, AID1785, AID1786, AID1966, AID2133, AID2136, AID2285, AID2495]; format: functional

Cc1nc(-c2ccccc2)sc1-c1nc(-c2ccccc2)ncc1S(=O)(=O)c1ccccc1
EC50 [1]: 38.2 µM (not active)
EC50 [2]: 61.8 µM (not active)
EC50 [3]: > 26.5 µM (inactive)

CCCN(Cc1cc2cc(C)ccc2[nH]c1=O)C(=O)c1ccccn1
EC50 (Mu-type opioid receptor [4]): > 32 µM (inactive)
EC50 [5]: > 32 µM (inactive)
IC50 [6]: > 32 µM (inactive)
EC50 [7]: > 32 µM (inactive)
IC50 [8]: > 32 µM (inactive)
IC50 (Mu-type opioid receptor [9]): > 32 µM (inactive)
EC50 [10]: > 10 µM (inactive)

CC(=O)NNc1ncnc2c1cnn2-c1ccc(C)cc1
IC50 [11]: > 100 µM (inactive)

CN(C)c1ccc(C(=O)OCC(=O)N2CCCC2)cc1
AC50 [12]: 10.6 µM (active)

O=[N+]([O-])c1ccc(N2CCCC2)c2ncccc12
CC50 [13]: > 50 µM (active)
EC50 (Troponin, cardiac muscle): 12.1 µM (inactive)
EC50 [14]: > 99 µM (inactive)
EC50 [15]: > 99 µM (inactive)

CC(Sc1nc2c(cc1C#N)CCCCC2)C(=O)O (centres undefined)
AC50 [12]: > 60 µM (inactive)

N=C1c2ccccc2CN1c1ccc(S(=O)(=O)N2CCCCC2)cc1
EC50 (Troponin, cardiac muscle): > 71.5 µM (inactive)

CC1(C(=O)NC(=S)NNC(=O)c2ccncc2)CCCCC1
CC50 (Vero): > 25 µM (active)
EC50 (Streptococcus): 21.1 µM (active)
CC50 [16]: 13.4 µM (active)
IC50 (cells): 1.06 µM (active)
EC50 [17]: 4.91 µM (active)
CC50 [18]: > 20 µM (active)
EC50 [19]: 11.9 µM (active)
EC50 (Streptokinase A): > 150 µM (not active)
EC50 [20]: 1.59 µM (active)
CC50 [21]: 9 µM (active)

CCn1c(=S)[nH]c2c(c1=O)C(C)(C)Cc1ccccc1-2
EC50 [1]: > 79.4 µM (not active)
EC50 [2]: > 79.4 µM (not active)
EC50 [3]: > 79.4 µM (inactive)

COc1ccc(S(=O)(=O)NCc2ccc(C(=O)NCCN(Cc3ccc(Br)cc3)C(C)C)cc2)cc1
IC50 (Mu-type opioid receptor [22]): > 32 µM (inactive)
IC50 [23]: > 32 µM (inactive)
IC50 [24]: 1.38 µM (active)
IC50 [25]: 13.5 µM (inactive)

Cc1cccc(S(=O)(=O)NCc2ccc(C(=O)NCCN(Cc3ccccc3)C(C)C)cc2)c1
IC50 (Mu-type opioid receptor [22]): 7.99 µM (active)
IC50 [23]: > 32 µM (inactive)
IC50 [24]: 0.872 µM (active)
IC50 [25]: 2.32 µM (active)

Reference: ChEMBL document CHEMBL1201862, “PubChem BioAssay data set” (2004)
